Source: patent US20140364405A1, “TREATMENT OF SEBORRHOEA” (McFarlane Marketing (Aust.)Pty. Ltd., priority 2011, published 2014)

How the values were obtained:
[1] = tested on: skin sebum (skin surface lipids); experiment: Pilot clinical study: sebum reduction measured with Sebumeter SM810PC; type: in vivo, humans; settings: for sebum reduction: one side of face, after 28 days
Protocol: (§1) In an initial pilot study in humans, 3 topical formulations were evaluated for effectiveness in reduction of sebum or treatment of acne.
(§2) The active substance in each of these formulations was: • Formulation 1—natural isolutrol (sodium 24R—scymnol sulphate). • Formulation 2—synthetic (24R)—scymnol. • Formulation 3—synthetic racemic (24RS)—scymnol.
(§3) In each formulation, the active substance was incorporated at 0.015% w/w into an oil-free topical lotion. In the pilot study, each test formulation was applied to one side of the face of a test subject, twice daily, for 28 days in the case of Formulations 1 and 2, and for 42 days in the case of Formulation 3. For each test formulation, 10 healthy female test subjects participated in the pilot study.
For the evaluation of sebum reduction, a Sebumeter SM810PC (Courage+Khazaka electronic GmbH) was used to obtain measurement of skin sebum (skin surface lipids) on days 0, 3, 7, 14, 21, 28, 35 and 42. To accomplish this, a special purpose film of the cartridge measuring head was applied for 30 seconds to the relevant skin area. The cartridge was inserted into the Sebumeter SM810 PC for electronic determination of film transparency variations. The LC-display of the instrument presents the result in terms of μg/cm^2. Duplicated measurements were obtained on the same site at each visit, and the results were averaged.

[2] = tested on: liver dysfunction; settings: in vivo; cited from earlier work
[3] = tested on: seborrhoea; settings: particularly when used topically; cited from earlier work
[4] = tested on: total acne lesion (pustules, papules and comedones) counts; experiment: Pilot clinical study: anti-acne treatment, total acne lesion counts; type: in vivo, humans; settings: 0.015% w/w in oil-free topical lotion, twice daily, over the 42 day test period
Protocol: as §1, §2, §3
For evaluation of anti-acne treatment, reduction in total acne lesion (pustules, papules and comedones) counts was measured.

[5] = 0.015% w/w in oil-free topical lotion, twice daily

C[C@H](CC[C@@H](O)C(CO)CO)[C@H]1CC[C@H]2[C@@H]3[C@H](O)C[C@@H]4C[C@H](O)CC[C@]4(C)[C@H]3C[C@H](O)[C@]12C [(24R)-scymnol, 24R-(+)-5β-cholestane-3α,7α,12α,24,26,27-hexol]
sebum reduction [1, 5]: at least as effective in sebum reduction as the active substance of Formulation 1 | treatment of liver dysfunction [2]: activity in the treatment of liver dysfunction

C[C@H](CC[C@@H](O)C(CO)CO)[C@H]1CC[C@H]2[C@@H]3[C@H](O)C[C@@H]4C[C@H](O)CC[C@]4(C)[C@H]3C[C@H](O)[C@]12C [(24S)-scymnol]
effect of presence of the non-natural enantiomer in the racemate on the sebum study ([1]; as component of racemic (24RS)-scymnol of Formulation 3): no adverse effect in the sebum study

CC(CC[C@@H](O)C(CO)COS(=O)(=O)[O-])C1CCC2C3C(O)C[C@@H]4CC(O)CCC4(C)C3CC(O)C12C.[Na+] (stereo partly drawn) [sodium 24R-scymnol sulphate, 24(+)-3α, 7α,12α,24,26-pentahydroxy-coprostane-27-sodium sulphate ester]
treatment of seborrhoea [3]: effective in the treatment of seborrhoea

racemic (24RS,25RS) sodium scymnol sulphate [racemic (24RS)-scymnol]
reduction of total acne lesion counts [4]: effective in reduction of total acne lesion counts | sebum reduction [1, 5]: at least as effective in sebum reduction as the active substances of Formulations 1 and 2 | sebum reduction when test period extended ([1]; 0.015% w/w in oil-free topical lotion, twice daily, test period extended to 42 days): sebum reduction continued
